Assay results published in patent US11166460B2, “α-amino acrylate microbicide, and preparation method therefor and uses thereof” (priority 2017, dated 2021).
Like-named read-outs stand apart in the source and are kept apart here.

Assays:
[1] = tested on: Phytophthora infestans (Mont) de Bary; experiment: microbe, parasite or virus in culture; assay type: cell-based; settings: Phytophthora infestans
[2] = tested on: Pellicularia sasakii; experiment: Fungicidal activity, fungi growth rate method, PS; assay type: cell-based; settings: 50 μg/mL
[3] = tested on: Botrytis cinerea; experiment: Fungicidal activity, fungi growth rate method, BC; assay type: cell-based; settings: Botrytis cinerea, 50 μg/mL
[4] = tested on: Alternaria solani; experiment: Fungicidal activity, fungi growth rate method, AS; assay type: cell-based; settings: Alternaria solani; 50 μg/mL; read-out: Fungicidal activity, inhibition, AS
[5] = tested on: tobacco mosaic virus (TMV); experiment: Anti-TMV protective activity (protection mode), live friction inoculation on tobacco seedlings; assay type: in vivo; settings: Tobacco mosaic virus, read-out: Anti-TMV activity, Protection effect (inhibition)
[6] = tested on: tobacco mosaic virus (TMV); experiment: Anti-TMV inactivation activity (inactivation mode), compound mixed with TMV before inoculation of tobacco leaves; assay type: in vivo; settings: Tobacco mosaic virus, read-out: Anti-TMV activity, Inactivation effect (inhibition)
[7] = tested on: tobacco mosaic virus (TMV); experiment: Anti-TMV curative activity (treatment mode), live friction inoculation on tobacco seedlings; assay type: in vivo; settings: Tobacco mosaic virus, read-out: Anti-TMV activity, Curative effect (inhibition), 100 μg/mL, tobacco seedlings, checked on seventh day
[8] = tested on: Rhizoctonia cerealis; experiment: Fungicidal activity, fungi growth rate method, RC; assay type: cell-based; settings: Ceratobasidium cereale, 50 μg/mL
[9] = tested on: Cercospora arachidicola; experiment: Fungicidal activity, fungi growth rate method, CA; assay type: cell-based; settings: Mycosphaerella arachidis; 50 μg/mL; read-out: Fungicidal activity, inhibition, CA
[10] = tested on: Physalospora piricola; experiment: Fungicidal activity, fungi growth rate method, PP; assay type: cell-based; settings: 50 μg/mL; read-out: Fungicidal activity, inhibition, PP
[11] = tested on: tobacco mosaic virus (TMV); experiment: Anti-TMV inducing activity (induction mode), tobacco seedlings; assay type: in vivo; settings: Tobacco mosaic virus, read-out: Anti-TMV activity, Induction effect (inhibition), 100 μg/mL, tobacco seedlings
[12] = tested on: wheat Gibberella zeae; experiment: microbe, parasite or virus in culture; assay type: cell-based; settings: Fusarium graminearum, read-out: Fungicidal activity, inhibition, GZ
[13] = tested on: Sclerotinia sclerotiorum; experiment: microbe, parasite or virus in culture; assay type: cell-based; settings: Sclerotinia sclerotiorum, 50 μg/mL
[14] = read-out: Fungicidal activity (inhibition) against PI: Phytophthora infestans (Mont) de Bary
[15] = read-out: Fungicidal activity, inhibition, PI
[16] = read-out: Fungicidal activity (inhibition) against PS: Pellicularia sasakii
[17] = read-out: Fungicidal activity, inhibition, PS
[18] = read-out: Fungicidal activity (inhibition) against BC: Botrytis cinerea
[19] = read-out: Fungicidal activity, inhibition, BC
[20] = read-out: Fungicidal activity, inhibition, RC
[21] = read-out: Fungicidal activity, inhibition, SS
[22] = read-out: Fungicidal activity (inhibition) against SS: Sclerotinia sclerotiorum

| Compound | inhibition at 50 µg/mL [1, 14] | inhibition at 50 µg/mL [1, 15] | inhibition at 50 µg/mL [2, 16] | inhibition at 50 µg/mL [2, 17] | inhibition at 50 µg/mL [3, 18] | inhibition at 50 µg/mL [3, 19] | inhibition at 50 µg/mL [4] | inhibition at 100 µg/mL [5] | inhibition at 100 µg/mL [6] | melting point | inhibition at 100 µg/mL [7] | inhibition at 50 µg/mL [8, 20] | inhibition at 50 µg/mL [9] | inhibition at 50 µg/mL [10] | inhibition at 100 µg/mL [11] | inhibition at 50 µg/mL [12] | inhibition at 50 µg/mL [13, 21] | inhibition at 50 µg/mL ([8]; read-out: Fungicidal activity (inhibition) against RC: Rhizoctonia cerealis) | inhibition at 50 µg/mL [13, 22] |
| --- | --- | --- | --- | --- | --- | --- | --- | --- | --- | --- | --- | --- | --- | --- | --- | --- | --- | --- | --- |
| Cc1nnsc1/C=C(\NC(=O)c1ccccc1)C(=O)N1CCC(O)(c2ccc(Br)cc2)CC1 [Compound 27, (Z)-N-[1-[[4-(4-bromophenyl)-4-hydroxy-1-piperidinyl]carbonyl]-2-[5-(4-methyl-1,2,3-thiadiazol)]ethenyl]benzamide] | ~20% | 24% | ~20% | 20% | ~20% | 26% | 21% | 37% | 34% | 212 to 214 °C | 3% | 23% | 12% | 12% | 0% | 57% | 47% | – | – |
| Cc1snnc1/C=C(\NC(=O)c1ccccc1)C(=O)N1CCC(O)(c2ccc(Br)cc2)CC1 [Compound 28, (Z)-N-[1-[[4-(4-bromophenyl)-4-hydroxy-1-piperidinyl]carbonyl]-2-[4-(5-methyl-1,2,3-thiadiazol)]ethenyl]benzamide] | ~20% | 19% | ~20% | 27% | ~20% | 24% | 32% | 36% | 3% | 231 to 233 °C | 43% | 62% | 27% | 29% | 4% | 77% | 75% | 62% | 60 to 80% |
| CC(C)(C)OC(=O)N1CCC(c2nc(/C=C(\NC(=O)c3ccccc3)C(=O)N3CCC(O)(c4ccc(Br)cc4)CC3)cs2)CC1 [Compound 29, (Z)-N-[1-[[4-(4-bromophenyl)-4-hydroxy-1-piperidinyl]carbonyl]-2-[4-[2-[4-(1-Boc-piperidine)]thiazol]]ethenyl]benzamide] | – | 14% | – | 11% | – | 7% | 6% | 0% | 0% | 166 to 168 °C | 36% | 10% | 13% | 0% | 2% | 3% | 67% | – | – |
| CCOC(=O)c1csc(C2CCN(C(=O)/C(=C/c3ccccc3)NC(=O)c3ccccc3)CC2)n1 [Compound 30, (Z)-N-[1-[[[4-[2-(ethylthiazole-4-carboxylate)]]-1-piperidinyl]carbonyl]-2-phenylethenyl]benzamide] | – | 9% | – | 13% | – | 17% | 13% | 0% | 0% | 114 to 115 °C | 3% | 4% | 7% | 2% | 2% | 11% | 82% | – | 80 to 95% |
| O=C(N/C(=C\c1ccccc1)C(=O)N1CCC(c2nc(CO)cs2)CC1)c1ccccc1 [Compound 31, (Z)-N-[1-[[[4-[2-(4-hydroxymethylthiazol)]]-1-piperidinyl]carbonyl]-2-phenylethenyl]benzamide] | – | 24% | – | 5% | – | 7% | 21% | 0% | 0% | 118 to 120 °C | 0% | 16% | 23% | 0% | 33% | 7% | 56% | – | – |
